The results in this text go back to PMC4878759 (PLoS ONE, 2016).

Structures are written as SMILES.

The target in the test is T1, mouse ANO2 (Mus musculus, UniProt Q8CFW1).
T1 sequence (Q8CFW1 1-1002): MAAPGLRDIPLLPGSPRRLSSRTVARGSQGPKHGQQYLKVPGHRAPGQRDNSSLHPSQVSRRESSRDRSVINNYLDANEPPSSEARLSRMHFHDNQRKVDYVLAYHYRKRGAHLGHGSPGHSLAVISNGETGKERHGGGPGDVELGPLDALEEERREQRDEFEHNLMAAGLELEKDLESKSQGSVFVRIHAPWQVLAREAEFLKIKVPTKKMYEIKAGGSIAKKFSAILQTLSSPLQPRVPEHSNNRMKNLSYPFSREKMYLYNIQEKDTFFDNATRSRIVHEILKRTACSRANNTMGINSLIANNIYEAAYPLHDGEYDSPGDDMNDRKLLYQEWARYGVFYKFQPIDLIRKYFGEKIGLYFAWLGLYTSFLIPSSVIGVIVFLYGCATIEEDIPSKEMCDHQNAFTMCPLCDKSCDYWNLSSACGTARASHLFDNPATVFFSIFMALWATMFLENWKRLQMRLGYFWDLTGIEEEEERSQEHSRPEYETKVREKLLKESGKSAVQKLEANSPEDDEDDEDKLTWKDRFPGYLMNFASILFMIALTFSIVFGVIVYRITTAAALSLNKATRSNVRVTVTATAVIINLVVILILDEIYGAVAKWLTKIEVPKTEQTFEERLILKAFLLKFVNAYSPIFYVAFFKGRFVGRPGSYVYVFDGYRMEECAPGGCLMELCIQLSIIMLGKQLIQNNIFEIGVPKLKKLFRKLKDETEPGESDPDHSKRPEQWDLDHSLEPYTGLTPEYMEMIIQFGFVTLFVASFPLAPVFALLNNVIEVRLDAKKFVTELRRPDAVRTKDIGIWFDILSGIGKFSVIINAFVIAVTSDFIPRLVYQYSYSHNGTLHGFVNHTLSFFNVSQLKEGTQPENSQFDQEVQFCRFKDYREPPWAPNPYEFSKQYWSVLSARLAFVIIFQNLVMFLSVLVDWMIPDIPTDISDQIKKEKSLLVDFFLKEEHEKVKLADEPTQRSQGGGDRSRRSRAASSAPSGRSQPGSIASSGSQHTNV
In words: YFP quenching assay in FRT cells expressing ANO2. The conditions noted are these: up to 10 μM, 100 μM ATP. It counts as cell-based.

Regarding `COc1ccccc1C=NNC(=O)COc1ccc(Cl)cc1C` [Ani9, 2-(4-chloro-2-methylphenoxy)-N-[(2-methoxyphenyl)methylideneamino]-acetamide], the “effect on ANO2 activity” value is listed as “did not significantly affect”.
